Measurements published in patent US20240172756A1, “ORGANOANTIMONY(V) C[…] AND METHODS OF PRODUCTION AND USE THEREOF” (priority 2021, published 2024).
≈ marks a conversion by molar mass, not a printed value.

Experiments:
Cryptococcus neoformans [1] = details: reference value; organism not given; cited from earlier work
[2] = system: Staphylococcus aureus MRSA; assay: Broth dilution assay, S. aureus MRSA; format: cell-based; details: multi-drug resistant strain, FIG. 20
Text: As shown in FIGS. 20-21, compounds containing Sb display higher bactericidal activity against Gram positive Staphylococcus aureus (FIG. 20) than Gram negative E. coli (FIG. 21). […] In addition, 25-40% reduction of growth was also observed for Sb(Ph4)Br, Sb(Ph4)ECO, Sb(Ph4)ACO, and Sb(Ph4)TCO against Gram negative E. coli (FIG. 21).

Cryptococcus neoformans [3] = assay: MIC assay, C. neoformans; format: cell-based; details: Table 1
Method: (§1) To determine the antifungal properties of the two groups of Sb(V) cyanoximaes, Cryptococcus neoformans and Candida albicans, both of which are deadly human pathogens, were tested.
(§2) MIC of the 3rd generation compounds, as well as complete MIC measurements for the 2nd generation Sb(V) compounds, are determined. A dilution assay in a 96-well-plate format, the gold standard for measuring MICS recommended by the Clinical Laboratory Standards Institute (CLSI), is utilized. Prior to plate inoculation, bacterial cultures of P. aeruginosa PAO1, S. aureus NRS70, E. foecium CC17, and E. coli S17 are grown in Mueller Hinton Broth (MHB) to middle log phase as determined by the individual growth curves and diluted to obtain absorbance at 600 nm of 0.1. These normalized cultures are diluted 1:100 using MHB and inoculated into the fresh medium with serially diluted Sb(V) compounds in 96-well plates. The plates are incubated for 24 h at 37° C. For fungal pathogens, cultures of Cryptococcus neoformans strain H99 and Candida albicans strain SC5314 are grown to stationary phase in YPD medium for 18 h at 30° C. Following incubation, fungal cells are centrifuged, washed three times with PBS, and then counted with trypan blue exclusion. Each compound is screened using a microdilution assay with 0.5×10^3 fungal cells in RPMI-MOPS medium at 35° C. for 48 h. Following incubations for bacterial or fungal pathogens, the OD600 is measured using a Biotek Synergy HT microtiter plate reader ([…].). The MIC is defined as the lowest concentration that inhibits growth. An aliquot from the clear wells from the MIC assay is plated on agar to determine minimum bactericidal concentration (MBC) or minimum fungicidal concentration (MFC). Each experiment is based on at least three biological replicates and repeated for consistency. The MIC and MBC for each compound is compared to those obtained for clinically applied antibiotics/antifungals. For bacterial pathogens, the corresponding antibiotics, such as tobramycin (P. aeruginosa), trimethoprim (S. aureus), gentamicin (E. coli) and ampicillin (E. foecium), are used. For fungal pathogens, the data is compared to the antifungal drugs Amphotericin B and Caspofungin for C. neoformans and C. albicans, respectively, by using the CLSI method.
(§3) Second, the compounds were dissolved in DMSO to […], and their minimal inhibitory concentration (MIC) was determined against C. neoformans and C. albicans. Starting concentration used was 100 μg/ml, and then diluted 1:2.
(§4) MIC assays: The MIC assay protocol utilized for determination of the effects of various organoantimony(V) cyanoximate compounds in various bacteria is shown in FIG. 16. Each solubilized in DMSO at 5 mg/ml, starting concentration is 100 μg/ml. Error bars represent standard error of the mean (if none, the values were identical in each experiment). Untested compounds have no bar. Bars reaching 100 μg/ml were not considered to have antifungal activity.

Staphylococcus aureus = assay: MIC in liquid culture, S. aureus; format: cell-based
Method: (§5) To determine the antimicrobial potential of the two generations (G1—based on SbPh4-core, and G2—based on SbMe3-core) of newly synthesized Sb(V) cyanoximates, several representative compounds were first selected and their antimicrobial properties tested by using disk diffusion assays, The minimal inhibitory concentrations (MIC) of selected compounds were also determined in liquid cultures. Three bacterial and two fungal pathogens were used as target microorganisms. Bacterial pathogens included Gram-negative Pseudomonas aeruginosa and Gram-positive Staphylococcus aureus, representing the ESKAPE group of human pathogens known for their high virulence and antibiotic resistance.
as §2
(§6) Two different types of antimicrobial studies were performed: 1) paper disk studies during growth on solid media; and 2) MIC determination during growth in liquid media. […] Antifungal disk assays concluded that Sb(Ph)4 (ECO) was effective against Cryptococcus neoformans and Candida albicans. […] For MIC assays, Sb(Ph)4 (MCO), the Sb(V) cyanoximate, was tested, along with the free cyanoximes H(MCO), H(ECO), and Na[H(ACO)2].
as §4

Pseudomonas aeruginosa = assay: MIC in liquid culture, P. aeruginosa; format: cell-based
Method: as §5, §2, §6, §4

Escherichia coli = assay: MIC in liquid culture, E. coli; format: cell-based
Method: as §5, §2, §6, §4

Candida albicans [4] = assay: MIC assay, C. albicans; format: cell-based; details: Table 1
Method: as §1, §2, §3, §4

Candida albicans [5] = assay: Antifungal disk diffusion assay, C. albicans; format: cell-based; details: solid compound on paper disk
Method: as §1
(§7) First, solid state powder compounds were deposited on paper disks and tested against two fungi: Cryptococcus neoformans and Candia albicans. Each experiment was conducted in triplicate with each compound at each concentration of deposited solid compound. The control was a blank paper (100% cotton disk).
(§8) Disk diffusion assays: No inhibition of Cryptococcus neoformans or Candida albicans for the following organoantimony(V) cyanoximate compounds at any concentration (S, ×2, ×4): H(ACO), H(ECO), H(MCO).

Cryptococcus neoformans [6] = assay: Antifungal disk diffusion assay, C. neoformans; format: cell-based; details: solid compound on paper disk
Method: as §1, §7, §8

| Structure (SMILES) | MIC concentration (for reference) (Cryptococcus neoformans [1]) | bactericidal activity [2] | MIC, C. neoformans (Cryptococcus neoformans [3]) | antimicrobial effect (Staphylococcus aureus; Methicillin-resistant strain NRS70, paper disk and MIC studies) | MIC, S. aureus (Staphylococcus aureus; Table 1) | MIC, P. aeruginosa (Pseudomonas aeruginosa; Table 1) | antimicrobial effect (Pseudomonas aeruginosa; strain PAO1, paper disk and MIC studies) | MIC, E. coli (Escherichia coli; Table 1) | antimicrobial effect (Escherichia coli; strain S17, paper disk and MIC studies) | MIC, C. albicans (Candida albicans [4]) | antifungal activity / zone of inhibition in disk assay (Candida albicans [5]) | antifungal activity / zone of inhibition in disk assay (Cryptococcus neoformans [6]) |
| --- | --- | --- | --- | --- | --- | --- | --- | --- | --- | --- | --- | --- |
| C[C@@H]1[C@H](O)[C@@H](C)/C=C/C=C/C=C/C=C/C=C/C=C/C=C/[C@H](O[C@@H]2O[C@H](C)[C@@H](O)[C@H](N)[C@@H]2O)C[C@@H]2O[C@](O)(C[C@@H](O)C[C@@H](O)[C@H](O)CC[C@@H](O)C[C@@H](O)CC(=O)O[C@H]1C)C[C@H](O)[C@H]2C(=O)O [Amphotericin B] | 0.5 µg/mL (≈ 0.541 µM) | – | – | – | – | – | – | – | – | – | – | – |
| N#CC(=N[O][Sb]([c]1ccccc1)([c]1ccccc1)([c]1ccccc1)[c]1ccccc1)C(N)=S [SbPh4TCO] | – | significant bactericidal activity | 25 µg/mL | significant effects | 100 µg/mL | >200 µg/mL | essentially no antimicrobial activity | >200 µg/mL | essentially no antimicrobial activity | 100 µg/mL | followed in antifungal activity against both strains | followed in antifungal activity against both strains |
